Experimental data published in ChEMBL document CHEMBL1201862, “PubChem BioAssay data set” (2004).
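All cell lines were grown in 96-well plates and treated with compound for 48 hours. GI50 = concentration required for 50% inhibition of growth.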 Active and inactive are the calls of the source. No stated cut-off is given here; in the data, active = GI50 up to about 1.1 µM and inactive = higher.

What was measured:
Assay in all cases: DTP human tumour cell line panel, 48 h
[1] = system: A498
[2] = system: BT-549
[3] = system: CAKI-1
[4] = system: CCRF-CEM
[5] = system: COLO 205
[6] = system: DU-145
[7] = system: HCC 2998
[8] = system: HCT-116
[9] = system: HCT-15
[10] = system: HL-60
[11] = system: HOP-62
[12] = system: HOP-92
[13] = system: HT-29
[14] = system: Hs-578T
[15] = system: IGROV-1
[16] = system: K562
[17] = system: KM12
[18] = system: LOX IMVI
[19] = system: M14
[20] = system: MCF7
[21] = system: MDA-MB-231
[22] = system: MDA-MB-435
[23] = system: MDA-N
[24] = system: MOLT-4
[25] = system: Malme-3M
[26] = system: NCI-H226
[27] = system: NCI-H23
[28] = system: NCI-H460
[29] = system: NCI/ADR-RES
[30] = system: OVCAR-3
[31] = system: OVCAR-4
[32] = system: OVCAR-5
[33] = system: OVCAR-8
[34] = system: PC-3
[35] = system: RPMI-8226
[36] = system: RXF 393
[37] = system: SF-295
[38] = system: SK-MEL-28
[39] = system: SK-MEL-2
[40] = system: SK-MEL-5
[41] = system: SK-OV-3
[42] = system: SN12C
[43] = system: SNB-19
[44] = system: SNB-75
[45] = system: SR
[46] = system: SW-620
[47] = system: T47D
[48] = system: TK-10
[49] = system: U-251
[50] = system: UACC-257
[51] = system: UACC-62
[52] = system: UO-31
[53] = system: 786-0
[54] = system: A549
[55] = system: ACHN
[56] = system: EKVX
[57] = system: SF-268
[58] = system: SF-539

Cc1[nH]c(=O)nc(S)c1C(=O)NC1C2CCCCC2NC2CCCCC21 (centres undefined)
GI50 [1]: 18.3 µM (inactive) | GI50 [2]: 16.4 µM (inactive) | GI50 [3]: 17.2 µM (inactive) | GI50 [4]: 14.8 µM (inactive) | GI50 [5]: 20.5 µM (inactive) | GI50 [6]: 11.8 µM (inactive) | GI50 [7]: 25 µM (inactive) | GI50 [8]: 15.1 µM (inactive) | GI50 [9]: 10.9 µM | GI50 [10]: > 100 µM (inactive) | GI50 [11]: 17.3 µM (inactive) | GI50 [12]: 18.5 µM (inactive) | GI50 [13]: 21.4 µM (inactive) | GI50 [14]: 23.4 µM (inactive) | GI50 [15]: 15.7 µM (inactive) | GI50 [16]: 4.57 µM (inactive) | GI50 [17]: 16.1 µM (inactive) | GI50 [18]: 27 µM (inactive) | GI50 [19]: 14.2 µM (inactive) | GI50 [20]: 17 µM (inactive) | GI50 [21]: 14.9 µM (inactive) | GI50 [22]: 6.93 µM (inactive) | GI50 [23]: 11.5 µM (inactive) | GI50 [24]: 14.3 µM (inactive) | GI50 [25]: 24.1 µM (inactive) | GI50 [26]: 17.3 µM (inactive) | GI50 [27]: 14.4 µM (inactive) | GI50 [28]: 14.4 µM (inactive) | GI50 [29]: 17.7 µM (inactive) | GI50 [30]: 16 µM (inactive) | GI50 [31]: 18.3 µM (inactive) | GI50 [32]: 18.4 µM (inactive) | GI50 [33]: 15.1 µM (inactive) | GI50 [34]: 13.2 µM (inactive) | GI50 [35]: 26.4 µM (inactive) | GI50 [36]: 13.5 µM (inactive) | GI50 [37]: 17.2 µM (inactive) | GI50 [38]: 11.2 µM (inactive) | GI50 [39]: 17.4 µM (inactive) | GI50 [40]: 18.9 µM (inactive) | GI50 [41]: > 10 µM (inactive) | GI50 [42]: 19.8 µM (inactive) | GI50 [43]: 15.6 µM (inactive) | GI50 [44]: 16.7 µM (inactive) | GI50 [45]: 28.6 µM (inactive) | GI50 [46]: 18.1 µM (inactive) | GI50 [47]: 7.59 µM (inactive) | GI50 [48]: 16.5 µM (inactive) | GI50 [49]: 13.9 µM (inactive) | GI50 [50]: 16.3 µM (inactive) | GI50 [51]: 4.09 µM (inactive) | GI50 [52]: 13.8 µM (inactive)

COc1cc2c(cc1OC)C(=O)/C(=C/c1ccc(Cl)cc1)CC2
GI50 [53]: > 10 µM (inactive) | GI50 [1]: > 10 µM (inactive) | GI50 [54]: > 10 µM (inactive) | GI50 [55]: > 10 µM (inactive) | GI50 [2]: > 10 µM (inactive) | GI50 [3]: > 10 µM (inactive) | GI50 [4]: > 10 µM (inactive) | GI50 [5]: > 10 µM (inactive) | GI50 [6]: > 10 µM (inactive) | GI50 [56]: > 10 µM (inactive) | GI50 [7]: > 10 µM (inactive) | GI50 [8]: > 10 µM (inactive) | GI50 [9]: > 10 µM | GI50 [10]: > 10 µM (inactive) | GI50 [11]: > 10 µM (inactive) | GI50 [12]: > 10 µM (inactive) | GI50 [13]: > 10 µM (inactive) | GI50 [14]: > 10 µM (inactive) | GI50 [15]: > 10 µM (inactive) | GI50 [16]: > 10 µM (inactive) | GI50 [17]: > 10 µM (inactive) | GI50 [18]: > 10 µM (inactive) | GI50 [19]: > 10 µM (inactive) | GI50 [20]: > 10 µM (inactive) | GI50 [21]: > 10 µM (inactive) | GI50 [22]: > 10 µM (inactive) | GI50 [23]: > 10 µM (inactive) | GI50 [24]: > 10 µM (inactive) | GI50 [25]: > 10 µM (inactive) | GI50 [26]: > 10 µM (inactive) | GI50 [27]: > 10 µM (inactive) | GI50 [28]: > 10 µM (inactive) | GI50 [29]: > 10 µM (inactive) | GI50 [30]: > 10 µM (inactive) | GI50 [31]: > 10 µM (inactive) | GI50 [32]: > 10 µM (inactive) | GI50 [33]: > 10 µM (inactive) | GI50 [34]: > 10 µM (inactive) | GI50 [35]: > 10 µM (inactive) | GI50 [36]: > 10 µM (inactive) | GI50 [57]: > 10 µM (inactive) | GI50 [37]: > 10 µM (inactive) | GI50 [58]: > 10 µM (inactive) | GI50 [38]: > 10 µM (inactive) | GI50 [39]: > 10 µM (inactive) | GI50 [40]: > 10 µM (inactive) | GI50 [41]: > 10 µM (inactive) | GI50 [42]: > 10 µM (inactive) | GI50 [43]: > 10 µM (inactive) | GI50 [45]: > 10 µM (inactive) | GI50 [46]: > 10 µM (inactive) | GI50 [47]: > 10 µM (inactive) | GI50 [48]: > 10 µM (inactive) | GI50 [49]: > 10 µM (inactive) | GI50 [50]: > 10 µM (inactive) | GI50 [51]: > 10 µM (inactive) | GI50 [52]: > 10 µM (inactive)

O=C1/C(=C/Cc2ccco2)N=C(c2ccccc2)N1c1nc2ccc(Sc3ccccc3)cc2[nH]1
GI50 [53]: 18 µM (inactive) | GI50 [1]: 8.36 µM (inactive) | GI50 [54]: 29.8 µM (inactive) | GI50 [55]: 19.4 µM (inactive) | GI50 [2]: 20.3 µM (inactive) | GI50 [3]: 25.4 µM (inactive) | GI50 [4]: 19.3 µM (inactive) | GI50 [5]: 18.2 µM (inactive) | GI50 [6]: 23.1 µM (inactive) | GI50 [56]: 25.6 µM (inactive) | GI50 [7]: 16.9 µM (inactive) | GI50 [8]: 17.8 µM (inactive) | GI50 [9]: 30.5 µM | GI50 [10]: 21.7 µM (inactive) | GI50 [11]: 30.1 µM (inactive) | GI50 [12]: 18.7 µM (inactive) | GI50 [13]: 25 µM (inactive) | GI50 [14]: 18.9 µM (inactive) | GI50 [15]: 30.3 µM (inactive) | GI50 [16]: 28.1 µM (inactive) | GI50 [17]: 16.7 µM (inactive) | GI50 [18]: 18.8 µM (inactive) | GI50 [19]: 19.7 µM (inactive) | GI50 [20]: 14 µM (inactive) | GI50 [21]: 20.5 µM (inactive) | GI50 [22]: 5.52 µM (inactive) | GI50 [23]: 6.12 µM (inactive) | GI50 [24]: 16.3 µM (inactive) | GI50 [28]: 26.9 µM (inactive) | GI50 [29]: 23.6 µM (inactive) | GI50 [30]: 21.9 µM (inactive) | GI50 [31]: 24.2 µM (inactive) | GI50 [32]: 25.9 µM (inactive) | GI50 [33]: 20.9 µM (inactive) | GI50 [34]: 22.9 µM (inactive) | GI50 [35]: 24.2 µM (inactive) | GI50 [36]: 15.1 µM (inactive) | GI50 [57]: 18.9 µM (inactive) | GI50 [37]: 29.7 µM (inactive) | GI50 [58]: 28.5 µM (inactive) | GI50 [38]: 28.2 µM (inactive) | GI50 [39]: 16.1 µM (inactive) | GI50 [40]: 15.9 µM (inactive) | GI50 [41]: 25.9 µM (inactive) | GI50 [42]: 16.1 µM (inactive) | GI50 [43]: 33.2 µM (inactive) | GI50 [44]: 19.5 µM (inactive) | GI50 [45]: 13.6 µM (inactive) | GI50 [46]: 34 µM (inactive) | GI50 [47]: 32.1 µM (inactive) | GI50 [48]: 35.4 µM (inactive) | GI50 [49]: 19.7 µM (inactive) | GI50 [50]: 17.7 µM (inactive) | GI50 [51]: 20.7 µM (inactive) | GI50 [52]: 19.2 µM (inactive)
